In patent US10294202B2, “Pyrrolidinones as herbicides” (FMC Corporation, priority 2013, dated 2019):

How the values were obtained:
[1] = system: wheat (winter wheat); test: Test C pre-/postemergence herbicide test; format: in vivo, Triticum aestivum
Summary of the method: (§1)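 Pre- and postemergence greenhouse screen. Preemergence treatment went onto freshly planted seeds in loam–sand soil; postemergence treatment went onto plants 2 to 18 cm tall at the 1- to 4-leaf stage in sphagnum peat/vermiculite medium. Scoring at 13 to 15 days used a 0–100 control scale.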

[2] = system: soybean; test: Test C pre-/postemergence herbicide test; format: in vivo, Glycine max
Summary of the method: as §1

[3] = system: oat, wild; test: Test C pre-/postemergence herbicide test; format: in vivo, Avena fatua; settings: Postemergence
Summary of the method: as §1

[4] = system: wheat; test: Test A pre-/postemergence herbicide test; format: in vivo, Triticum aestivum; settings: Postemergence
Summary of the method: (§2)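 Visual injury ratings, 0 = no effect, 100 = complete control, taken ~10 days after treatment against untreated greenhouse controls. Preemergence: directed soil spray onto seeded loam/sand pots. Postemergence: spray onto plants at one- to two-leaf stage, 2–10 cm tall.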

[5] = system: giant foxtail; test: Test A pre-/postemergence herbicide test; format: in vivo, Setaria faberii
Summary of the method: as §2

[6] = system: waterhemp; test: Test C pre-/postemergence herbicide test; format: in vivo, Amaranthus rudis
Summary of the method: as §1

[7] = system: ragweed; test: Test C pre-/postemergence herbicide test; format: in vivo, Ambrosia elatior
Summary of the method: as §1

[8] = system: pigweed; test: Test A pre-/postemergence herbicide test; format: in vivo, Amaranthus retroflexus
Summary of the method: as §2

[9] = system: ducksalad; test: Test B flooded paddy test; format: in vivo, Heteranthera limosa; settings: 500 g ai/ha, Flood; scale of 0 to 100 where 0 is no effect and 100 is complete control
Summary of the method: (§3)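 Paddy-water application at a 3 cm flood, young plants having two leaves. Water level maintained; greenhouse, 13–15 days; visual 0–100 control rating.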

[10] = system: sedge, umbrella; test: Test B flooded paddy test; format: in vivo, Cyperus difformis; settings: 500 g ai/ha, Flood; scale of 0 to 100 where 0 is no effect and 100 is complete control
Summary of the method: as §3

[11] = system: oilseed rape; test: Test C pre-/postemergence herbicide test; format: in vivo, Brassica napus
Summary of the method: as §1

[12] = system: nutsedge, yellow; test: Test C pre-/postemergence herbicide test; format: in vivo, Cyperus esculentus
Summary of the method: as §1

[13] = Postemergence, 31 g ai/ha, scale 0 to 100 (0 no effect, 100 complete control)
[14] = Postemergence, 62 g ai/ha, scale 0 (no effect) to 100 (complete control)
[15] = Postemergence, 125 g ai/ha, scale 0 to 100 (0 no effect, 100 complete control)
[16] = Postemergence, 250 g ai/ha, scale 0 to 100 (0 no effect, 100 complete control)
[17] = Preemergence, 62 g ai/ha, scale 0 to 100 (0 no effect, 100 complete control)
[18] = Preemergence, 125 g ai/ha, scale 0 to 100
[19] = Postemergence, 125 g ai/ha, visual rating on 0 to 100 scale (0 no effect, 100 complete control), approx. 10 days
[20] = Postemergence, 500 g ai/ha, 0 to 100 scale (0 no effect, 100 complete control)
[21] = Preemergence, 125 g ai/ha, 0 to 100 scale where 0 is no effect and 100 is complete control
[22] = Preemergence, 500 g ai/ha, visual rating on 0 to 100 scale (0 no effect, 100 complete control)
[23] = Preemergence, 31 g ai/ha, scale 0 to 100, 0 is no effect and 100 is complete control

How did the “Plant response rating, Wheat” value [1, 13] turn out when `O=C1NCC(c2cccc(Br)c2)C1C(=O)Nc1ccc(F)c(F)c1F` (stereo not drawn) [Compound 310] was run?
The value was 0.

And the “Plant response rating, Wheat” value [1, 14]?
Its value is 0.

What about the “Plant response rating, Wheat” value [1, 15] of the same molecule?
The value was 0.

And the “Plant response rating, Wheat” value [1, 16]?
The value was 0.

And the “Wheat plant response rating” value [1, 17]?
The value was 0.

And the “Plant response rating, Wheat” value [1, 18]?
Its value is 0.

What about the “Plant response rating (scale of 0 to 100), Wheat” value ([1]; Preemergence, 250 g ai/ha) of the same molecule?
The value was 10.

What about the “Plant response rating, Soybean” value [2, 13] of the same molecule?
Its value is 10.

And the “Plant response rating, Soybean” value [2, 14]?
The value was 10.

And the “Plant response rating, Soybean” value [2, 15]?
The value was 0.

And the “Plant response rating, Soybean” value [2, 16]?
The value was 0.

And the “Soybean plant response rating” value [2, 17]?
Its value is 0.

What about the “Plant response rating, Soybean” value [2, 18] of the same molecule?
Its value is 0.

What about the “Plant response rating (scale of 0 to 100), Soybean” value ([2]; Preemergence, 250 g ai/ha) of the same molecule?
Its value is 0.

And the “Plant response rating, Oat, Wild” value ([3]; 31 g ai/ha, scale 0 to 100 (0 no effect, 100 complete control))?
The value was 0.

What about the “Plant response rating, Oat, Wild” value ([3]; 62 g ai/ha, scale 0 (no effect) to 100 (complete control)) of the same molecule?
Its value is 0.

What about the “Plant response rating, Oat, Wild” value ([3]; 125 g ai/ha, scale 0 to 100 (0 no effect, 100 complete control)) of the same molecule?
The value was 0.

And the “Plant response rating, Oat, Wild” value ([3]; 250 g ai/ha, scale 0 to 100 (0 no effect, 100 complete control))?
The value was 0.

And the “Plant response rating, Wheat” value ([4]; 125 g ai/ha, visual rating on 0 to 100 scale (0 no effect, 100 complete control), approx. 10 days)?
The value was 30.

What about the “Plant response rating, Wheat” value ([4]; 500 g ai/ha, 0 to 100 scale (0 no effect, 100 complete control)) of the same molecule?
Its value is 50.

And the “Plant response rating, Foxtail, Giant” value [5, 19]?
Its value is 90.

And the “Plant response rating, Foxtail, Giant” value [5, 20]?
Its value is 90.

What about the “Plant response rating, Foxtail, Giant” value [5, 21] of the same molecule?
The value was 90.

And the “Foxtail, Giant plant response rating” value [5, 22]?
Its value is 90.

And the “Plant response rating, Waterhemp” value [6, 13]?
The value was 5.

And the “Plant response rating, Waterhemp” value [6, 14]?
The value was 10.

What about the “Plant response rating, Waterhemp” value [6, 15] of the same molecule?
Its value is 10.

What about the “Plant response rating, Waterhemp” value [6, 16] of the same molecule?
The value was 10.

And the “Waterhemp plant response rating” value [6, 17]?
The value was 0.

What about the “Plant response rating, Waterhemp” value [6, 18] of the same molecule?
Its value is 25.

What about the “Plant response rating (scale of 0 to 100), Waterhemp” value ([6]; Preemergence, 250 g ai/ha) of the same molecule?
Its value is 25.

What about the “Plant response rating, Ragweed” value [7, 13] of the same molecule?
Its value is 10.

And the “Plant response rating, Ragweed” value [7, 14]?
The value was 10.

What about the “Plant response rating, Ragweed” value [7, 15] of the same molecule?
Its value is 20.

What about the “Plant response rating, Ragweed” value [7, 16] of the same molecule?
The value was 60.

What about the “Ragweed plant response rating” value [7, 17] of the same molecule?
The value was 0.

What about the “Plant response rating, Ragweed” value [7, 18] of the same molecule?
The value was 5.

And the “Plant response rating (scale of 0 to 100), Ragweed” value ([7]; Preemergence, 250 g ai/ha)?
The value was 35.

What about the “Plant response rating, Pigweed” value [8, 19] of the same molecule?
Its value is 0.

What about the “Plant response rating, Pigweed” value [8, 20] of the same molecule?
The value was 0.

And the “Plant response rating, Pigweed” value [8, 21]?
The value was 40.

And the “Pigweed plant response rating” value [8, 22]?
The value was 40.

What about the “Plant response rating, Ducksalad” value [9] of the same molecule?
Its value is 100.

And the “Plant response rating, Sedge, Umbrella” value [10]?
Its value is 0.

What about the “Plant response rating, Oilseed Rape” value [11, 13] of the same molecule?
Its value is 0.

And the “Plant response rating, Oilseed Rape” value [11, 14]?
The value was 0.

And the “Plant response rating, Oilseed Rape” value [11, 15]?
Its value is 0.

And the “Plant response rating, Oilseed Rape” value [11, 16]?
The value was 40.

And the “Oilseed Rape plant response rating” value [11, 23]?
Its value is 0.

What about the “Oilseed Rape plant response rating” value [11, 17] of the same molecule?
Its value is 5.

And the “Plant response rating, Oilseed Rape” value [11, 18]?
The value was 40.

And the “Plant response rating (scale of 0 to 100), Oilseed Rape” value ([11]; Preemergence, 250 g ai/ha)?
Its value is 85.

And the “Plant response rating, Nutsedge, Yellow” value [12, 13]?
Its value is 0.

And the “Plant response rating, Nutsedge, Yellow” value [12, 14]?
Its value is 0.

And the “Plant response rating, Nutsedge, Yellow” value [12, 15]?
Its value is 0.

And the “Plant response rating, Nutsedge, Yellow” value [12, 16]?
Its value is 25.

And the “Nutsedge, Yellow plant response rating” value [12, 23]?
The value was 0.

And the “Nutsedge, Yellow plant response rating” value [12, 17]?
Its value is 0.

What about the “Plant response rating, Nutsedge, Yellow” value [12, 18] of the same molecule?
Its value is 0.

What about the “Plant response rating (scale of 0 to 100), Nutsedge, Yellow” value ([12]; Preemergence, 250 g ai/ha) of the same molecule?
Its value is 0.
